Values of other authors as cited in patent US7388019B2, “3-amino-4-phenylbutanoic acid derivatives as dipeptidyl peptidase inhibitors for the treatment or prevention of diabetes” (Merck & Co., Inc., priority 2003, dated 2008).
One block for each molecule: values may come before it.

Legend:
[1] = rats
DP-IV = biological target: T1, DP-IV (Homo sapiens, UniProt P27487); settings: plasma
T1 construct: GRF is rapidly degraded in plasma to GRF[3-44]; from tissue

[2] = mouse, cyclophosphamide-induced neutropenia

T1 sequence (P27487 39-766 limits assumed): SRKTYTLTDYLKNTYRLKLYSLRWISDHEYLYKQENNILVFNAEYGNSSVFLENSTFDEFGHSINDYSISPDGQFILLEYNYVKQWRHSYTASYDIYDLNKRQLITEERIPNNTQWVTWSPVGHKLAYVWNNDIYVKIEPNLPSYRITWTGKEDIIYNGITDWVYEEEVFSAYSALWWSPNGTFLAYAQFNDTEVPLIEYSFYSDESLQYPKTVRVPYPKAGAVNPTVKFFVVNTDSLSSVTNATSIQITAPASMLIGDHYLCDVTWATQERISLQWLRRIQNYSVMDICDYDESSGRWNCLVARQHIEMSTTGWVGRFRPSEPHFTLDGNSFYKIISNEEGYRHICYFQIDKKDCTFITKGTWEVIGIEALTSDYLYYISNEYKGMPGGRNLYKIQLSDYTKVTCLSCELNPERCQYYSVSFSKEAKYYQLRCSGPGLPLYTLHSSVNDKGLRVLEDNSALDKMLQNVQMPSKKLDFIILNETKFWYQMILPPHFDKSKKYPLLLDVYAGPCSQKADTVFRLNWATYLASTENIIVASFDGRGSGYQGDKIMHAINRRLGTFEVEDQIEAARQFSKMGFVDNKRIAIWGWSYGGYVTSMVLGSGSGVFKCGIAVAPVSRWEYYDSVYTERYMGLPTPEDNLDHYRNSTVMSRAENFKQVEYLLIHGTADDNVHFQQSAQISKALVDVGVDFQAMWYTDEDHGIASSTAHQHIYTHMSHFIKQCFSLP

Molecule: CC(C)N1CCC(c2ccccc2)(c2ccccc2)CC1 [Prodipine, Pro-Pro-diphenyl-phosphonate]
- cardiac allograft survival [1]: double cardiac allograft survival in rats from day 7 to day 14

- degradation of GRF to GRF[3-44] (DP-IV): prevented
Molecule: diprotin A

Molecule: CC(C)[C@H](N)C(=O)N1CCC[C@H]1B(O)O [Val-Boro-Pro]
- hematopoiesis [2]: stimulated hematopoiesis
